For this experiment, the target named is Rsk1 (Rattus norvegicus, UniProt Q63531). Kind of experiment: Rsk1(r) kinase assay, 33P-ATP filter binding. Format: biochemical. The note with it: compound at 3 μM; [ATP] = 10 μM. On the procedure: The assays briefly described below in Examples 54-123 were carried out as described in Davies et al., Biochem. J., 351:95-105 (2000). All assays were carried out at 10 μM ATP unless otherwise noted.
All kinases are pre-diluted to a 10× working concentration prior to addition into the assay. The composition of the dilution buffer for each kinase is described below in Table 3.
In addition, the following abbreviations are used: h is human; r is rat; m is mouse; b is bovine; and y is yeast.
In a final reaction volume of 25 μl, Rsk1(r) (5-10 mU) is incubated with 8 mM MOPS pH 7.0, 0.2 mM EDTA, 30 μM […], 10 mM MgAcetate and [γ-^33P-ATP] (Specific activity approx. 500 cpm/pmol, concentration as required). The reaction is initiated by the addition of Mg^2+[γ-^33P-ATP]. After incubation for 40 minutes at room temperature, the reaction is stopped by the addition of 5 μl of a 3% phosphoric acid solution. 10 μl of the reaction is then spotted onto a P30 filtermat and washed three times for 5 minutes in 75 mM phosphoric acid and once in methanol prior to drying and scintillation counting.
Using the appropriate assay protocols as listed above, kinase inhibition data for Compounds 21 and 71 was determined for the following kinases: CDK1/cyclin B, CDK2/cyclin A, cSRC, Yes, MEK1, and Rsk1.

Chain of Rsk1 (Q63531 whole entry): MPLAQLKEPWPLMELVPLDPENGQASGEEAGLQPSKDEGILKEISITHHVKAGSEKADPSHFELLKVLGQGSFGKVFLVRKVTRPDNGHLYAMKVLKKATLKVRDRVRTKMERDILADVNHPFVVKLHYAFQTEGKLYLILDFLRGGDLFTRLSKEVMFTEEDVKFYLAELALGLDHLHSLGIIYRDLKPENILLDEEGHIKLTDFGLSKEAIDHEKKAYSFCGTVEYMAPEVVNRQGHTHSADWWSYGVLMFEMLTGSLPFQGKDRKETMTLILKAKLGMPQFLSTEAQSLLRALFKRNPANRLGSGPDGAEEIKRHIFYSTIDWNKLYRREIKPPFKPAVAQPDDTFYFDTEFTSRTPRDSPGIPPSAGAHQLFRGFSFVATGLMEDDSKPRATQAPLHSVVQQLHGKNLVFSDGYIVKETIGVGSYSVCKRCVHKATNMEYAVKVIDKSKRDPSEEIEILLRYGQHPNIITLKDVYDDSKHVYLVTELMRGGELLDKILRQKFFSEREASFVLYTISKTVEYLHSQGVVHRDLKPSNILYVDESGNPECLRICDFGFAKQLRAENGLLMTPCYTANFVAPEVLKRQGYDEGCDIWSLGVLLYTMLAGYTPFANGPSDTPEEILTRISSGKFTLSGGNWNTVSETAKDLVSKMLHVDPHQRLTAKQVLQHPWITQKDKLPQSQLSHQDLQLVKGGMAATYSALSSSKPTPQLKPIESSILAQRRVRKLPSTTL

As for `COc1ccc2cc(-c3n[nH]c4ccc(-c5n[nH]c(CN6CCOCC6)n5)cc34)ccc2c1` [Compound 20], the “Rsk1 (% control)” value came out at 4 % control.

On to `CC(C)(C)Cc1nc(-c2ccc3[nH]nc(-c4ccc5cc(OCc6ccccn6)ccc5c4)c3c2)n[nH]1` [Compound 92], for which the “Rsk1 (% control)” value is 29 % control.
